Results from patent publication US20220226231A1, “AGRIMONY EXTRACT AS ANTI-POLLUTION AGENT” (PIERRE FABRE DERMO-COSMETIQUE, priority 2019, published 2022).

System: reconstructed human epithelium (RHE)
Assay: Anti-pollution activity: MDA production (lipid peroxidation) in ozone-stressed reconstructed human epithelium
Assay type: cell-based
Details: Trolox 1 mg/mL
Excerpt: The objective of this study is to evaluate the antioxidant, detoxifying and ozone-protective activity of an agrimony extract, following exposure to ozone in a reconstructed human epithelium (RHE) mimicking the effect of pollution on the skin. Lipids playing a role in epidermal barrier function, such as free fatty acids, cholesterol, triglycerides and ceramides, can be impacted under stress conditions with increased oxidative lipid damage. Direct measurements of lipid peroxidation can be carried out by measuring malondialdehyde (MDA) by gas chromatography techniques combined with mass spectrometry. This compound is naturally present in tissues, where it is a manifestation of oxidative stress. It is derived in particular from the action of reactive oxygen derivatives on polyunsaturated fatty acids. Several conditions are realized in this study: • Negative control: non-stressed RHE; • Positive control: ozone-stressed RHE; • Test with an agrimony extract: ozone-stressed RHE is in contact with the extract (n=3), this test is performed with 3 different concentrations (1, 3 and 10 μg/mL); • Test with a reference compound: ozone-stressed RHE is in contact with the reference compound (Trolox). The agrimony extract is solubilized in water/DMSO, (80/20, v/v). The process is based on lipid oxidation from ozonolysis. […] A protection index is calculated from the stress and control conditions. […]

## Cc1c(C)c2c(c(C)c1O)CCC(C)(C(=O)O)O2 (centres unmarked) [Trolox, 3,4-Dihydro-6-hydroxy-2,5,7,8-tetramethyl-2H-1-benzopyran-2-carboxylic acid]
  PI (%) protection index: 37.6%
Listed as trolox
  PI (%) protection index: 38%
